The text below walks through data of US20250082657A1, “CONJUGATES OF CHEMOTHERAPY AGENTS AND TISSUE-BINDING SMALL MOLECULES, COMPOSITIONS AND METHODS THEREOF” (CANWELL BIOTECH LIMITED, priority 2022, published 2025).

For one series, the system named is A549. Put plainly: Cellular IC50 in A549 tumor cell line (CellTiter-Glo). The series is classed as cell-based. To be noted: A549 cells, 72 h incubation. On the procedure:
(§1) The cellular inhibition was determined in three assays: U87MG, A549 and MC38. Cells were recovered and cultured in appropriate medium supplemented with 10% fetal bovine serum and 100 U/mL penicillin G sodium, and maintained in cell incubators (37° C., 5% CO2). Before testing, cells in culture dishes were rinsed with Phosphate Buffered Solution, detached with Trypsin. Dilute and adjust the cell number with the culture medium, add the cell suspension to the 96 well cell plate. Cells were maintained in incubators overnight. In T0 control plate, cells were added with 100 μL CellTiter-Glo reagent, balance at room temperature for 10 minutes, and read the chemiluminescence value with envision.
(§2) In the testing plate, compounds were dissolved with corresponding solvent and diluted gradiently. Diluted compound solution was added to a 96 well plate with cells. After incubation of 72 h, cells were added with 100 μL CellTiter-Glo reagent, balanced at room temperature for 10 minutes, and read the chemiluminescence value with envision. IC50 was calculated using the GraphPad Prism software package (Prism 6 for Windows, Version 6.0, GraphPad Software Inc., San Diego, CA).
For orientation: In ATP-based viability assays light output follows the ATP content of the culture.

In another series the test system is MC38. In words: Cellular IC50 in MC38 tumor cell line (CellTiter-Glo). Format: cell-based. Particulars: 72 h incubation. On the procedure: as §1, §2
In the next series the test system is U87MG. In words: Cellular IC50 in U87MG tumor cell line (CellTiter-Glo). Format: cell-based. Particulars: U87MG cells, 72 h incubation. On the procedure: as §1, §2
Series [1] can be described thus: Chemical stability in PBS (pH 7.4). To be noted: PBS buffer.
Method: (§3) Test compounds spiking solution: 1 mM test compounds spiking solution A: Add 10 μL of 10 mM test compounds stock solution to 90 μL DMSO. • 2. Add 396 μL of buffer into the tubes designated for different time points. Pre-warm the samples at 37° C. for 10 min. • 3. Add 4 μL of spiking solution A into the wells designated as 0 min (or 15, 45, 90, 120 min) containing 396 μL of buffer, then start timing count down. • 4. At each time point, add 1200 μL ACN containing IS into the tubes. • 5. Samples are centrifuged at 10,000 rpm for 5 min, then 100 μL of supernatant are ready for LC-MS/MS analysis.
The conditions of series [2]: male, CD-1, mouse, in vivo.
Method: (§4) Pharmacokinetic parameters were determined in male CD-1 mice (Shanghai Jihui Laboratory Animal Care Co., Ltd., 6-8 weeks old). Animals were maintained under a 12 hr light/dark cycle. Animals had free access to food and water during the study.
(§5) For intravenous, compounds were formulated as a solution (in 5% DMSO+10% Solutol HS15+85% (20% HP-β-CD in water)) in 5 mL/kg dosing volume and administered via tail vein. For subcutaneous, compounds were formulated as a solution (in 5% DMSO+10% Solutol HS15+85% (20% HP-β-CD in water)) in 10 mL/kg dosing volume or (in 0.5% MC+1% Pluronic F68 in water) in 50 μL/mouse dosing volume and administered via subcutaneous puncture.
(§6) Semi-serial blood samples (about 110 μL) were taken from animal at 0.083, 0.25, 0.5, 1, 2, 4, 8 and 24 hr for IV group and 0.5, 2, 4, 8, 24, 48 and 96 hr for SC group. Samples were held on ice for no longer than 15 minutes before centrifugation (2000 g, 5 min, 4° C.) within 15 minutes post sampling. Plasma was snap frozen in dry ice and then transferred into −70° C. freezer for long term storage until LC-MS/MS analysis.
(§7) Tissue collection for SC group at 0.5, 2, 4, 8, 24, 48 and 96 hr. After animals were anesthetized and exsanguinated, tissue samples (including muscle and skin) were collected and weighted, and then snap frozen in liquid nitrogen and further stored at −70° C. for long term storage until LC-MS/MS analysis. Tissue samples were homogenized under freezing conditions.
(§8) PK parameters were generated from LC-MS/MS data using Phoenix WinNonlin 8.2 software.
A further series can be described thus: physchem. To be noted: buffer, pH 7.4.
Series [3] is described as follows: Pharmacokinetics in male CD-1 mice (plasma and tissue, LC-MS/MS). To be noted: CD-1, mouse.
Method: as §4, §5, §6, §7, §8
The conditions of series [4]: buffer.
Method: as §3
A short description of another series: in vivo. Particulars: male, CD-1, mouse, sc, 5 mg/kg.
Setting [5] is: Mus musculus, MC-38, MC38 cells.

Like-named read-outs stand apart in the source and are kept apart here.

Method for in vivo: as §4, §5, §6, §7, §8
Method for physchem: as §3

As for `CCc1c2c(nc3ccc(O)cc13)-c1cc3c(c(=O)n1C2)COC(=O)[C@]3(O)CC` [Compound 1-1, SN-38, reference compound], the IC50 in the series with A549 is 99.5 nM; in the series with MC38 (MC38 cells) it was 21.2 nM; with U87MG, 13.6 nM.
For the compound `CCc1c2c(nc3ccc(OC(=O)N(C)CCc4ccc(I)cc4)cc13)-c1cc3c(c(=O)n1C2)COC(=O)[C@]3(O)CC` [Compound 4, (S)-4,11-diethyl-4-hydroxy-3,14-dioxo-3,4,12,14-tetrahydro-1H-pyrano[3′,4′:6,7]indolizino[1,2-b]quinolin-9-yl(4-iodophenethyl)(methyl)carbamate], the half-life at 10 µM in series [1] is 3.58 h.
As to `CC(C)C[C@H](NC(=O)[C@H](Cc1ccccc1)NC(=O)c1cnccn1)B(O)O` [Compound 9-7, Valcade, reference compound], the IC50 worked out at 9.36 nM with A549 (Homo sapiens); 16.3 nM in the series with MC38 (setting [5]); 6.89 nM in the series on U87MG (Homo sapiens, U-87 MG).
On to `CCc1c2c(nc3ccc(OC(=O)CCCc4ccc(I)cc4)cc13)-c1cc3c(c(=O)n1C2)COC(=O)[C@]3(O)CC` [Compound 1], for which, in series [2] (3 mg/kg), the Tissue/Plasma ratio is listed as 171.8 and the “T½” value is given as 10.3 h. The compound further yielded a half-life at 10 µM in “physchem” of 19.7 h.
Regarding `CCc1c2c(nc3ccc(OC(=O)C(C)CCc4ccc(I)cc4)cc13)-c1cc3c(c(=O)n1C2)COC(=O)[C@]3(O)CC` (stereo partly shown) [Compound 2], the half-life at 10 µM in “physchem” was determined as 23.1 h.
Consider `CC(C)Cc1ccc([C@H](C)C(=O)O)cc1` [Compound 8-1], for which the concentration for half-maximal inhibition (IC50) in the series on MC38 (setting [5]) was greater than 10000 nM.
For the compound `O=C(CCCc1ccc(I)cc1)OCn1cc(F)c(=O)[nH]c1=O` [Compound 28, (5-fluoro-2,4-dioxo-3,4-dihydropyrimidin-1(2H)-yl)methyl 4-(4-iodophenyl) butanoate], the area under the curve AUC(0-t) in [3] (tissue (muscle or skin, not specified which), sc, 10 mg/kg) came to 37.6 µg·h/mL. The same compound showed a half-life in [3] (tissue (muscle or skin, not specified which), subcutaneous, 10 mg/kg) of 11.3 h. Moreover, the half-life at 10 µM in series [1] was determined as 8.4 h.
For `CCc1c2c(nc3ccc(OC(=O)[C@@H](C)c4ccc(CC(C)C)cc4)cc13)-c1cc3c(c(=O)n1C2)COC(=O)[C@]3(O)CC` [Compound 8, (S)-4,11-diethyl-4-hydroxy-3,14-dioxo-3,4,12,14-tetrahydro-1H-pyrano [3′,4′:6,7]indolizino[1,2-b]quinolin-9-yl(S)-2-(4-isobutylphenyl)propanoate], in [2] (sc, 5 mg/kg), the “T½” value is on record as greater than 96 h. In addition, the concentration for half-maximal inhibition (IC50) with A549 (Homo sapiens) amounted to 208 nM; in the series with MC38 (setting [5]) it was 22.7 nM; in the series with U87MG (Homo sapiens, U-87 MG) it was 13.4 nM. For the same compound, in [4], the “Stability (PBS, pH 7.4) T½ (min)” value was “∞”. Further, the area under the curve AUC(0-t) in the series “in vivo” was found to be 11800 µg·h/mL. In the series “in vivo”, this compound had a half-life of 44.1 h.
As to `CC(C)Cc1ccc([C@H](C)C(=O)NCCCC[N+]23CC(=O)O[B-]2([C@H](CC(C)C)NC(=O)[C@H](Cc2ccccc2)NC(=O)c2cnccn2)OC(=O)C3)cc1` (stereo partly drawn) [Compound 16, N-((S)-1-(((R)-1-(6-(4-((S)-2-(4-isobutylphenyl)propanamido)butyl)-4,8-dioxo-1,3,6,2-dioxazaborocan-2-yl)-3-methylbutyl)amino)-1-oxo-3-phenylpropan-2-yl)pyrazine-2-carboxamide], the 50% inhibitory concentration (IC50) with A549 (Homo sapiens) stood at 10.7 nM; in the series on MC38 (setting [5]), 15.9 nM; in the series on U87MG (Homo sapiens, U-87 MG), 7.27 nM. This compound also had a half-life in series [3] (in vivo, sc, 1 mg/kg) of 93.2 h. Besides, the exposure AUC(0-t) in series [3] (plasma, sc, 1 mg/kg) came to 0.165 µg·h/mL; in series [3] (tissue (muscle or skin, not specified), sc, 1 mg/kg), 60.3 µg·h/mL. Moreover, in series [3] (tissue (muscle or skin, not specified) / plasma, subcutaneous, 1 mg/kg), the partition ratio (Kp) worked out at 365.
`CCc1c2c(nc3ccc(OC(=O)NCCc4ccc(I)cc4)cc13)-c1cc3c(c(=O)n1C2)COC(=O)[C@]3(O)CC` [Compound 3, (S)-4,11-diethyl-4-hydroxy-3,14-dioxo-3,4,12,14-tetrahydro-1H-pyrano [3′,4′:6,7]indolizino[1,2-b]quinolin-9-yl(4-iodophenethyl)carbamate] came in with a half-life at 10 µM in series [1] of 0.85 h.
`CC(=O)O[C@@]12CO[C@@H]1C[C@H](O)[C@@]1(C)C(=O)[C@H](O)C3=C(C)[C@@H](OC(=O)[C@H](OC(=O)CCCc4ccc(I)cc4)[C@@H](NC(=O)OC(C)(C)C)c4ccccc4)C[C@@](O)([C@@H](OC(=O)c4ccccc4)[C@H]21)C3(C)C` [Compound 30, (2aR,4S,4aS,6R,9S,11 S,12S,12aR,12bS)-12b-acetoxy-9-(((2R,3S)-3-((tert-butoxycarbonyl)amino)-2-((4-(4-iodophenyl)butanoyl)oxy)-3-phenylpropanoyl)oxy)-4,6,11-trihydroxy-4a,8,13,13-tetramethyl-5-oxo-2a,3,4,4a,5,6,9,10,11,12,12a,12b-dodecahydro-1H-7,11-methanocyclodeca[3,4]benzo[1,2-b]oxet-12-yl benzoate] had a half-life in the series “physchem” of 13.4 h.

For orientation: IC50 means the concentration that inhibits the measured activity by half. What is called half-life is the time needed for the level to fall by half in the phase considered. A lower half-life goes with fast loss. What is called AUC(0-t) is exposure summed from dosing to a finite time, without extrapolation to infinity. A lower AUC(0-t) goes with low exposure. In general, Kp refers to the ratio of the level in a tissue or fluid to that in plasma or blood.
